Experimental data taken from patent US7928107B2, “Quinazolines useful as modulators of ion channels” (Vertex Pharmaceuticals Incorporated, priority 2004, dated 2011).

Biological target: NaV 1.8 channel (Homo sapiens, UniProt Q9Y5Y9)
Assay: Activity against NaV 1.8 channel (optical membrane potential assay)
Format: cell-based
In short: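 Cells expressing the NaV of interest loaded with CC2-DMPE (30 min, room temperature) then DiSBAC2(3) with ABSCl and veratridine; compound incubated 20–30 min. Depolarization triggered by sodium add-back and read on VIPR as 460/580 nm FRET ratio (Rf/Ri), normalized to tetracaine and untreated controls.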

NaV 1.8 channel, sequence (Q9Y5Y9 whole entry): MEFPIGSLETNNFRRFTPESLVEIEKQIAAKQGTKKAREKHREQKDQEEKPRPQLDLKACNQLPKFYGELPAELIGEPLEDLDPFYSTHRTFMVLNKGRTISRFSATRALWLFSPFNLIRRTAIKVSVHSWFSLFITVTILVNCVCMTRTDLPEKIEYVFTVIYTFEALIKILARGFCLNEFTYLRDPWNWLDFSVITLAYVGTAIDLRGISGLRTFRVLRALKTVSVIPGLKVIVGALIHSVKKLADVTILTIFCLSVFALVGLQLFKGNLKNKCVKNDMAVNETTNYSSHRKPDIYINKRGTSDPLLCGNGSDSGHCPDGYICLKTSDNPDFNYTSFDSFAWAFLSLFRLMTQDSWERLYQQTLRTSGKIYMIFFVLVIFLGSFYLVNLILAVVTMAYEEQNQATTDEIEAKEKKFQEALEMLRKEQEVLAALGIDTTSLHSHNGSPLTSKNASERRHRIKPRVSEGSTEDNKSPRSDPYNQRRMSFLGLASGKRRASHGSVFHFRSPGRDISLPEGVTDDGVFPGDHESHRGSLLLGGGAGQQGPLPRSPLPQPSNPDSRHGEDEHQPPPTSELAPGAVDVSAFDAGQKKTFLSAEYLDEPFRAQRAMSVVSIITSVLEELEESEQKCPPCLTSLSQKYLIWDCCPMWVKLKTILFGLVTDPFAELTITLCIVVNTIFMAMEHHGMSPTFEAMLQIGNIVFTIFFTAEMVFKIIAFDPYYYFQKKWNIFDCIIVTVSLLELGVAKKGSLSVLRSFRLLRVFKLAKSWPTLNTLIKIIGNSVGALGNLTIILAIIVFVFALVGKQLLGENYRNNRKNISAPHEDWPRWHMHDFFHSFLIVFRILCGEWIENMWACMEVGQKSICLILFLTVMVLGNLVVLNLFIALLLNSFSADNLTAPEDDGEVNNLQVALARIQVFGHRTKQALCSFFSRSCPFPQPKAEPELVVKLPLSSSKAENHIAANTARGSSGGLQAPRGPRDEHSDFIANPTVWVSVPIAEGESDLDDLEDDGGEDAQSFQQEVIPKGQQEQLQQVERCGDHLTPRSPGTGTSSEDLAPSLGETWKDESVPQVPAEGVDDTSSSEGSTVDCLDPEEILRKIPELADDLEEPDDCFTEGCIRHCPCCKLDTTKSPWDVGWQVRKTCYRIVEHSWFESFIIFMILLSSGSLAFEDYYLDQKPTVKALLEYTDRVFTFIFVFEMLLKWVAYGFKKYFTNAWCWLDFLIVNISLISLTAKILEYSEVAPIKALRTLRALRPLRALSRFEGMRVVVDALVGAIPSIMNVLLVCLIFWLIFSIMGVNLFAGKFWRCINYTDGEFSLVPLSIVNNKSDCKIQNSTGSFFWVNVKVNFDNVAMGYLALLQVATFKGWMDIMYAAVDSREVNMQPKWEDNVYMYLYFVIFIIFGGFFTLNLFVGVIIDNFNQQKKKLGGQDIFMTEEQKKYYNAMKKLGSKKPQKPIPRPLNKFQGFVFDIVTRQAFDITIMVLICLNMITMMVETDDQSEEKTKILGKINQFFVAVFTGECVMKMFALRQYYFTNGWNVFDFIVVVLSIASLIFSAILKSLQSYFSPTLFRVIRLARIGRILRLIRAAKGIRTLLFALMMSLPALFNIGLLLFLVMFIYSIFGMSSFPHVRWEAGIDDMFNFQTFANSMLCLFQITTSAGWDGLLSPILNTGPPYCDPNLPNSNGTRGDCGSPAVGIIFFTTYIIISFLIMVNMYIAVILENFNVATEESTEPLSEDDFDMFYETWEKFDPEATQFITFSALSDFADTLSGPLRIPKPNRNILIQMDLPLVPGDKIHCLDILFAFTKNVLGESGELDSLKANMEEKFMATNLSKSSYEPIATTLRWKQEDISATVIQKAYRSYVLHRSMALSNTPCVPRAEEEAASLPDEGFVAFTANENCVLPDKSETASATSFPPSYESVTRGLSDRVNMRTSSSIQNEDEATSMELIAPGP

Row | SMILES | IC50
1 | COc1cccc(C(=O)N[C@@H]2CCN(c3nc(-c4ccccc4O)nc4cc(C)ccc34)C2)c1 [Example 326, N—((R)-1-(2-(2-Hydroxyphenyl)-7-methylquinazolin-4-yl)pyrrolidin-3-yl)-3-methoxybenzamide] | > 10 µM
2 | Cc1ccc2c(N3CC[C@@H](NC(=O)c4cccc(C#N)c4)C3)nc(-c3ccccc3O)nc2c1 [Example 327, 3-Cyano-N—((R)-1-(2-(2-hydroxyphenyl)-7-methylquinazolin-4-yl)pyrrolidin-3-yl)benzamide] | > 10 µM
3 | Cc1ccc2c(N3CC[C@@H](NC(=O)c4cccnc4)C3)nc(-c3ccccc3O)nc2c1 [Example 328, N—((R)-1-(2-(2-Hydroxyphenyl)-7-methylquinazolin-4-yl)pyrrolidin-3-yl)nicotinamide] | > 10 µM
4 | O=C(N[C@@H]1CCN(c2nc(-c3ccccc3O)nc3ccc(F)cc23)C1)C1CC1 [Example 329, N—((R)-1-(6-Fluoro-2-(2-hydroxyphenyl)quinazolin-4-yl)pyrrolidin-3-yl)cyclopropanecarboxamide] | 2 to 10 µM
5 | O=C(N[C@@H]1CCN(c2nc(-c3ccccc3O)nc3ccc(F)cc23)C1)O[C@H]1CCOC1 [Example 335, (S)-Tetrahydrofuran-3-yl (R)-1-(6-fluoro-2-(2-hydroxyphenyl)quinazolin-4-yl)pyrrolidin-3-ylcarbamate] | 2 to 10 µM
6 | O=C(N[C@@H]1CCN(c2nc(-c3ccccc3O)nc3ccc(F)cc23)C1)O[C@@H]1CCOC1 [Example 337, (R)-Tetrahydrofuran-3-yl (R)-1-(6-fluoro-2-(2-hydroxyphenyl)quinazolin-4-yl)pyrrolidin-3-ylcarbamate] | 2 to 10 µM
7 | O=C(CC1CCOCC1)N[C@@H]1CCN(c2nc(-c3ccccc3O)nc3ccc(F)cc23)C1 [Example 338, N—((R)-1-(6-Fluoro-2-(2-hydroxyphenyl)quinazolin-4-yl)pyrrolidin-3-yl)-2-(tetrahydro-2H-pyran-4-yl)acetamide] | > 10 µM
8 | O=C(N[C@@H]1CCN(c2nc(-c3ccccc3O)nc3ccc(F)cc23)C1)OCC1CCCCO1 (stereo partly drawn) [Example 339, (Tetrahydro-2H-pyran-2-yl)methyl (R)-1-(6-fluoro-2-(2-hydroxyphenyl)quinazolin-4-yl)pyrrolidin-3-ylcarbamate] | 2 to 10 µM
9 | Cc1ccc2c(N3CC[C@@H](NC(=O)C4C(C)(C)C4(C)C)C3)nc(-c3ccccc3O)nc2c1 [Example 340, N—((R)-1-(2-(2-Hydroxyphenyl)-7-methylquinazolin-4-yl)pyrrolidin-3-yl)-2,2,3,3-tetramethylcyclopropanecarboxamide] | < 2 µM
10 | Cc1ccc2c(N3CC[C@@H](NC(=O)c4cccc(N(C)C)c4)C3)nc(-c3ccccc3O)nc2c1 [Example 342, 3-(Dimethylamino)-N—((R)-1-(2-(2-hydroxyphenyl)-7-methylquinazolin-4-yl)pyrrolidin-3-yl)benzamide] | > 10 µM
11 | Cc1ccc2c(N3CC[C@@H](NC(=O)O[C@H]4CCOC4)C3)nc(-c3c(O)cccc3F)nc2c1 [Example 345, (S)-Tetrahydrofuran-3-yl (R)-1-(2-(2-fluoro-6-hydroxyphenyl)-7-methylquinazolin-4-yl)pyrrolidin-3-ylcarbamate] | 2 to 10 µM
12 | Cc1ccc2c(N3CC[C@@H](NC(=O)C4CC4)C3)nc(-c3c(O)cccc3F)nc2c1 [Example 346, N—((R)-1-(2-(2-Fluoro-6-hydroxyphenyl)-7-methylquinazolin-4-yl)pyrrolidin-3-yl)cyclopropanecarboxamide] | 2 to 10 µM
13 | O=C(N[C@@H]1CCN(c2nc(-c3ccccc3O)nc3ccc(F)cc23)C1)c1ccncc1 [Example 347, N—((R)-1-(6-Fluoro-2-(2-hydroxyphenyl)quinazolin-4-yl)pyrrolidin-3-yl)isonicotinamide] | > 10 µM
14 | O=C(N[C@@H]1CCN(c2nc(-c3ccccc3O)nc3ccc(F)cc23)C1)c1ccccn1 [Example 348, N—((R)-1-(6-Fluoro-2-(2-hydroxyphenyl)quinazolin-4-yl)pyrrolidin-3-yl)picolinamide] | > 10 µM
15 | O=C(N[C@@H]1CCN(c2nc(-c3ccccc3O)nc3ccc(F)cc23)C1)c1cccnc1 [Example 349, N—((R)-1-(6-Fluoro-2-(2-hydroxyphenyl)quinazolin-4-yl)pyrrolidin-3-yl)nicotinamide] | > 10 µM
16 | Cc1ccc2c(N3CC[C@@H](NC(=O)c4ccncc4)C3)nc(-c3c(O)cccc3F)nc2c1 [Example 350, N—((R)-1-(2-(2-Fluoro-6-hydroxyphenyl)-7-methylquinazolin-4-yl)pyrrolidin-3-yl)isonicotinamide] | > 10 µM
17 | Cc1ccc2c(N3CC[C@@H](NC(=O)c4ccccn4)C3)nc(-c3c(O)cccc3F)nc2c1 [Example 351, N—((R)-1-(2-(2-Fluoro-6-hydroxyphenyl)-7-methylquinazolin-4-yl)pyrrolidin-3-yl)picolinamide] | 2 to 10 µM
18 | Cc1ccc2c(N3CC[C@@H](NC(=O)c4cccnc4)C3)nc(-c3c(O)cccc3F)nc2c1 [Example 352, N—((R)-1-(2-(2-Fluoro-6-hydroxyphenyl)-7-methylquinazolin-4-yl)pyrrolidin-3-yl)nicotinamide] | > 10 µM

Row | SMILES | IC50
19 | Cc1ccc2c(N3CC[C@@H](NC(=O)c4ccncc4)C3)nc(-c3ccccc3O)nc2c1 [Example 353, N—((R)-1-(2-(2-Hydroxyphenyl)-7-methylquinazolin-4-yl)pyrrolidin-3-yl)isonicotinamide] | > 10 µM
20 | Cc1ccc2c(N3CC[C@@H](NC(=O)c4ccccn4)C3)nc(-c3ccccc3O)nc2c1 [Example 354, N—((R)-1-(2-(2-Hydroxyphenyl)-7-methylquinazolin-4-yl)pyrrolidin-3-yl)picolinamide] | 2 to 10 µM
21 | O=C(NC[C@@H]1CCN(c2nc(-c3ccccc3O)nc3ccc(F)cc23)C1)O[C@@H]1CCOC1 [Example 355, (R)-Tetrahydrofuran-3-yl ((S)-1-(6-fluoro-2-(2-hydroxyphenyl)quinazolin-4-yl)pyrrolidin-3-yl)methylcarbamate] | > 10 µM
22 | O=C(NC[C@@H]1CCN(c2nc(-c3ccccc3O)nc3ccc(F)cc23)C1)O[C@H]1CCOC1 [Example 356, (S)-Tetrahydrofuran-3-yl ((S)-1-(6-fluoro-2-(2-hydroxyphenyl)quinazolin-4-yl)pyrrolidin-3-yl)methylcarbamate] | > 10 µM
23 | O=C(NC[C@@H]1CCN(c2nc(-c3ccccc3O)nc3ccc(F)cc23)C1)C1CC1 [Example 357, N—(((S)-1-(6-Fluoro-2-(2-hydroxyphenyl)quinazolin-4-yl)pyrrolidin-3-yl)methyl)cyclopropanecarboxamide] | > 10 µM
24 | O=C(N[C@@H]1CCN(c2nc(-c3ccccc3O)nc3ccc(F)cc23)C1)C(O)c1ccc(F)cc1 (stereo partly drawn) [Example 358, N—((R)-1-(6-Fluoro-2-(2-hydroxyphenyl)quinazolin-4-yl)pyrrolidin-3-yl)-2-(4-fluorophenyl)-2-hydroxyacetamide] | > 10 µM
25 | Cc1ccc2c(N3CC[C@@H](NC(=O)C(O)c4ccc(F)cc4)C3)nc(-c3c(O)cccc3F)nc2c1 (stereo partly drawn) [Example 359, N—((R)-1-(2-(2-Fluoro-6-hydroxyphenyl)-7-methylquinazolin-4-yl)pyrrolidin-3-yl)-2-(4-fluorophenyl)-2-hydroxyacetamide] | > 10 µM
26 | Cc1ccc2c(N3CC[C@@H](NC(=O)C(O)c4ccc(F)cc4)C3)nc(-c3ccccc3O)nc2c1 (stereo partly drawn) [Example 360, 2-(4-Fluorophenyl)-2-hydroxy-N—((R)-1-(2-(2-hydroxyphenyl)-7-methylquinazolin-4-yl)pyrrolidin-3-yl)acetamide] | > 10 µM
27 | Cc1ccc2c(N3CC[C@@H](NC(=O)[C@H](O)CC(C)(C)C)C3)nc(-c3ccccc3O)nc2c1 [Example 361, (2R)-2-Hydroxy-N—((R)-1-(2-(2-Hydroxyphenyl)-7-methylquinazolin-4-yl)pyrrolidin-3-yl)-4,4-dimethylpentanamide] | 2 to 10 µM
28 | Cc1ccc2c(N3CC[C@H](CNC(=O)OCc4ccccc4)C3)nc(-c3ccccc3O)nc2c1 [Example 362, Benzyl ((R)-1-(2-(2-hydroxyphenyl)-7-methylquinazolin-4-yl)pyrrolidin-3-yl)methylcarbamate] | > 10 µM
29 | Cc1ccc2c(N3CC[C@@H](CNC(=O)OCc4ccccc4)C3)nc(-c3ccccc3O)nc2c1 [Example 363, Benzyl ((S)-1-(2-(2-hydroxyphenyl)-7-methylquinazolin-4-yl)pyrrolidin-3-yl)methylcarbamate] | 2 to 10 µM
30 | CCOC(=O)NC[C@@H]1CCN(c2nc(-c3ccccc3O)nc3cc(C)ccc23)C1 [Example 364, Ethyl ((S)-1-(2-(2-hydroxyphenyl)-7-methylquinazolin-4-yl)pyrrolidin-3-yl)methylcarbamate] | < 2 µM
31 | Cc1ccc2c(N3CC[C@@H](CNC(=O)OCC(C)C)C3)nc(-c3ccccc3O)nc2c1 [Example 365, Isobutyl ((S)-1-(2-(2-hydroxyphenyl)-7-methylquinazolin-4-yl)pyrrolidin-3-yl)methylcarbamate] | < 2 µM
32 | COCCOC(=O)NC[C@@H]1CCN(c2nc(-c3ccccc3O)nc3cc(C)ccc23)C1 [Example 366, 2-Methoxyethyl ((S)-1-(2-(2-hydroxyphenyl)-7-methylquinazolin-4-yl)pyrrolidin-3-yl)methylcarbamate] | 2 to 10 µM
33 | CCCOC(=O)NC[C@@H]1CCN(c2nc(-c3ccccc3O)nc3cc(C)ccc23)C1 [Example 367, Propyl ((S)-1-(2-(2-hydroxyphenyl)-7-methylquinazolin-4-yl)pyrrolidin-3-yl)methylcarbamate] | < 2 µM
34 | Cc1ccc2c(N3CC[C@@H](CNC(=O)OC(C)C)C3)nc(-c3ccccc3O)nc2c1 [Example 368, Isopropyl ((S)-1-(2-(2-hydroxyphenyl)-7-methylquinazolin-4-yl)pyrrolidin-3-yl)methylcarbamate] | 2 to 10 µM
35 | Cc1ccc2c(N3CC[C@@H](CNC(=O)OCC(C)(C)C)C3)nc(-c3ccccc3O)nc2c1 [Example 369, Neopentyl ((S)-1-(2-(2-hydroxyphenyl)-7-methylquinazolin-4-yl)pyrrolidin-3-yl)methylcarbamate] | < 2 µM
